Read-outs that look alike come from different tables or passages of the source.
How the values were obtained:
[1] = test system: A2780 tumors; assay: Human ovarian tumor xenografts (A2780) in athymic nude mice, tumor volume % T/C; type: in vivo
Protocol: (§1) Female athymic nude mice (Harlan Laboratories Models, S.L. (Barcelona, Spain) were utilized for all experiments. Animals were housed in individually ventilated cages, up to ten per cage in a 12-hour light-dark cycle at 21-23° C. and 40-60% humidity. The mice were allowed free access to irradiated standard rodent diet and sterilized water. Animals were acclimated for at least 5 days prior to tumor implantation with a tumor cell suspension.
The formula to calculate volume for a prolate ellipsoid was used to estimate tumor volume (mm^3) from 2-dimensional tumor measurements: Tumor volume (mm^3)=[L×W^2]÷2, where L is the length and it is the longest diameter in mm, and W is the width and it is the shortest diameter in mm of a tumor. Assuming unit density, volume was converted to weight (i.e., 1 mm^3=1 mg). Tumor volume and animal body weights were measured 2-3 times per week starting form the first day of treatment (Day 0).
PM01183 was provided in the form of vials of lyophilized PM01183 cake which was reconstituted with water for infusion to a concentration of 0.2 mg/mL. The PM01183 stock solution was further diluted in 5% glucose solution for injection to the dosing formulation concentrations. […] Vinorelbine was provided as a solution prepared by diluting the product with 0.9% saline solution.
(§2) Dose level groups were administered either as single agents or in combination.
(§3) Comparison of the median tumor volume in the treatment groups (T) to the median tumor volume in the control group (T/C×100%) was used for evaluation of the antitumor efficacy.
Day 9 for PM01183 and vinorelbine study) using the median-effect principle (Chou T. C. Pharmacol. Rev.

[2] = test system: PANC-1 human pancreatic carcinoma cell line; assay: cells
Protocol: (§4) a. […] Briefly, cells were harvested and seeded in 96 well microtiter plates at a density of 5,000 cells in 150 μL of culture medium and incubated for 24 hours in drug-free medium before treatment with vehicle alone or test compounds for 72 h.
(§5) The cytotoxic effect was measured by the MTT reduction assay, in which 3-(4,5-Dimethylthiazol-2-yl)-2,5-diphenyltetrazolium bromide, a tetrazole, which is reduced to purple formazan in the mitochondria of living cells, was used. MTT (50 μL of 1 mg/mL stock solution) was added to the wells and incubated for 8 hours at 37° C. until formazan crystals were formed. After gently removing the culture medium, DMSO was added to dissolve the insoluble purple formazan product into a colored solution. […] Results were expressed as percentage of control cell growth.
(§6) b. In a second set of assays, A549 human tumor cells were incubated with PM01183 in combination with each of the agents mentioned above.
(§7) As a visual aid, response values were plotted on a scatter plot with dose ratios given on the x-axis and % response values on the y-axis. […] In cases where response values at the two endpoints were approximately equivalent, points lying above or below this predicted line of additivity could be interpreted as representing antagonistic or synergistic drug interaction, respectively.
(§8) Additional serial dilutions were prepared in serum-free culture medium to achieve a final 4× concentration. Aliquots of 50 μL of each diluted compound were added per well.
PANC-1 was the human pancreatic carcinoma cell line selected for this assay.

[3] = test system: PC-3 human prostate cancer cell line; assay: cells
Protocol: as §4, §5, §6, §7, §8
PC-3 was the human prostate adenocarcinome cell line selected for this assay.

[4] = test system: HepG2 human hepatocellular liver carcinoma cell line; assay: MTT cytotoxicity assay in HepG2 cells: IC50 of single agents and combinations with PM01183; type: cell-based
Protocol: as §4, §5, §6, §7, §8
HepG2 was the human hepatocellular liver carcinoma cell line selected for this assay.

[5] = test system: SK-MEL-2 human melanoma cell line; assay: cells
Protocol: as §4, §5, §6, §7, §8
SK-MEL-2 was the human melanoma cell line selected for this assay.

[6] = test system: U87-MG human glioblastoma cell line; assay: cells
Protocol: as §4, §5, §6, §7, §8
U87-MG was the human glioblastoma cell line selected for this assay.

[7] = test system: HT-29 human colon adenocarcinoma cell line; assay: cells
Protocol: as §4, §5, §6, §7, §8
HT-29 was the human colon adenocarcinoma cell line selected for this assay.

[8] = test system: RXF-393 human kidney carcinoma cell line; assay: cells
Protocol: as §4, §5, §6, §7, §8

[9] = test system: MDA-MB-231 human breast adenocarcinoma cell line; assay: cells
Protocol: as §4, §5, §6, §7, §8

[10] = test system: HGC-27 human gastric carcinoma cell line; assay: cells
Protocol: as §4, §5, §6, §7, §8
HGC-27 was the human gastric carcinoma cell line selected for this assay.

[11] = test system: IGROV-1 human ovarian adenocarcinoma cell line; assay: cells
Protocol: as §4, §5, §6, §7, §8
IGROV-1 was the human ovarian adenocarcinoma cell line selected for this assay.

[12] = test system: HGC-27 tumors; assay: Human gastric tumor xenografts (HGC-27) in athymic nude mice, tumor volume % T/C; type: in vivo
Protocol: as §1
HGC-27 cells were grown at 37° C. with 5% CO2 in Iscove's modified Dulbeco's medium (IDMD).
PM01183 was provided in the form of vials of lyophilized PM01183 cake which was reconstituted with water for infusion to a concentration of 0.2 mg/mL. The PM01183 stock solution was further diluted in 5% glucose solution for injection to the dosing formulation concentrations. Cisplatin and 5-fluorouracil were provided as solutions prepared by diluting the product with 0.9% saline solution for injection to the target final concentration.
as §2, §3

[13] = doxorubicin 2.0 mg/kg iv days 0,7
[14] = doxorubicin 4.0 mg/kg iv days 0,7
[15] = doxorubicin 6.0 mg/kg iv days 0,7
[16] = doxorubicin 8.0 mg/kg iv days 0,7
[17] = cisplatin 1.5 mg/kg iv days 0,7
[18] = cisplatin 3.0 mg/kg iv days 0,7
[19] = cisplatin 4.5 mg/kg iv days 0,7
[20] = cisplatin 6.0 mg/kg iv days 0,7

In the case of COc1cccc2c1C(=O)c1c(O)c3c(c(O)c1C2=O)C[C@@](O)(C(=O)CO)C[C@@H]3O[C@H]1C[C@H](N)[C@H](O)[C@H](C)O1 [Doxorubicin, doxorubicin], the “% T/C on day 0” value [1, 13] is reported as 99.8%, the “% T/C on day 3” value [1, 13] is reported as 91.5% and the “% T/C on day 5” value [1, 13] is reported as 93.1%. The “% T/C on day 7” value [1, 13] was 94.2%, the “% T/C on day 10” value [1, 13] was 86.2% and the “% T/C on day 0” value [1, 14] was 102.0%. For the same compound, the “% T/C on day 3” value [1, 14] was 82.9%, the “% T/C on day 5” value [1, 14] was 75.1% and the “% T/C on day 7” value [1, 14] was 75.0%. The “% T/C on day 0” value [1, 15] was 99.4%, the “% T/C on day 3” value [1, 15] was 71.0% and the “% T/C on day 5” value [1, 15] was 60.3%. The “% T/C on day 7” value [1, 15] was 56.8%, the “% T/C on day 10” value [1, 15] was 54.3% and the “% T/C on day 0” value [1, 16] was 99.5%. The “% T/C on day 3” value [1, 16] was 60.8%, the “% T/C on day 5” value [1, 16] was 49.8% and the “% T/C on day 7” value [1, 16] was 48.1%. For the same compound, the “% T/C on day 10” value [1, 16] was 39.4%, the IC50 ([2]; Homo sapiens, PANC-1, 72 h) was 3.45 µM and the IC50 ([3]; Homo sapiens, PC-3, 72 h) was 1.48 µM. The IC50 ([4]; Homo sapiens, HepG2, 72 h) was 0.2 µM, the IC50 ([5]; Homo sapiens, SK-MEL-2, 72 h) was 0.3 µM and the IC50 ([6]; Homo sapiens, U-87 MG, 72 h) was 0.3 µM. It also gave an IC50 ([7]; Homo sapiens, HT-29, 72 h) of 0.9 µM, an IC50 ([8]; Homo sapiens, RXF 393, 72 h) of 0.8 µM and an IC50 ([9]; Homo sapiens, MDA-MB-231, 72 h) of 0.6 µM. For the same compound, the IC50 ([10]; Homo sapiens, HGC-27, 72 h) was 0.054 µM and the IC50 ([11]; Homo sapiens, IGROV-1, 72 h) was 0.259 µM.

With N.N.[Cl][Pt][Cl] [Cisplatin, cisplatin] the IC50 ([2]; PANC-1, 72 hours drug exposure, MTT) was 147 µM, the IC50 ([3]; PC-3, 72 hours drug exposure, MTT) was 110 µM and the IC50 ([4]; HepG2, 72 hours drug exposure, MTT, read-out: IC50) was 50 µM. For the same compound, the IC50 ([5]; SK-MEL-2, 72 hours drug exposure, MTT) was 160 µM, the IC50 ([6]; U87-MG, 72 hours drug exposure, MTT) was 44 µM and the “% T/C on day 0” value [12, 17] was 99.3%. The “% T/C on day 3” value [12, 17] was 78.1%, the “% T/C on day 5” value [12, 17] was 78.8% and the “% T/C on day 7” value [12, 17] was 82.6%. The “% T/C on day 10” value [12, 17] was 83.5%, the “% T/C on day 12” value [12, 17] was 86.6% and the “% T/C on day 14” value [12, 17] was 89.9%. The “% T/C on day 0” value [12, 18] was 99.0%, the “% T/C on day 3” value [12, 18] was 78.6% and the “% T/C on day 5” value [12, 18] was 80.0%. The “% T/C on day 7” value [12, 18] was 78.7%, the “% T/C on day 10” value [12, 18] was 81.3% and the “% T/C on day 12” value [12, 18] was 82.8%. The “% T/C on day 14” value [12, 18] was 85.1%, the “% T/C on day 0” value [12, 19] was 98.5% and the “% T/C on day 3” value [12, 19] was 90.5%. For the same compound, the “% T/C on day 5” value [12, 19] was 94.5%, the “% T/C on day 7” value [12, 19] was 90.2% and the “% T/C on day 10” value [12, 19] was 75.7%. For the same compound, the “% T/C on day 12” value [12, 19] was 73.7%, the “% T/C on day 14” value [12, 19] was 81.1% and the “% T/C on day 0” value [12, 20] was 97.7%. The “% T/C on day 3” value [12, 20] was 76.1%, the “% T/C on day 5” value [12, 20] was 79.0% and the “% T/C on day 7” value [12, 20] was 75.1%. For the same compound, the “% T/C on day 10” value [12, 20] was 64.4%, the “% T/C on day 12” value [12, 20] was 61.3% and the “% T/C on day 14” value [12, 20] was 72.7%. The IC50 ([7]; HT-29, 72 hours drug exposure, MTT) was 220 µM, the IC50 ([8]; RXF-393, 72 hours drug exposure, MTT) was 66.7 µM and the IC50 ([9]; MDA-MB-231, 72 hours drug exposure, MTT) was 153 µM. It also gave an IC50 ([10]; HGC-27, 72 hours drug exposure, MTT) of 80 µM and an IC50 ([11]; IGROV-1, 72 hours drug exposure, MTT) of 70 µM.
